Laboratory results as given in article PMC7576608, “Mechanisms of telomerase inhibition by oxidized and therapeutic dNTPs” (Nature Communications, 2020).

How the values were obtained:
telomerase [1] = biological target: telomerase (Homo sapiens, UniProt O14746); assay: Telomerase extension of 32P-end labeled primers with a single dNTP (percent primer extension); type: biochemical; set-up: made in house; anti-FLAG immunopurification, eluted with 3xFLAG peptide; conditions: for Chain termination after telomerase insertion (in words): end-labeled primers, single dNTP; for Percent Primer Extension: 50 μM single dNTP
Procedure: A chain terminating mechanism of inhibition requires that the enzyme adds the modified dNTP to a growing chain, which then blocks further synthesis. […] To test whether telomerase can incorporate other modified dNTPs, and whether the incorporation is chain terminating and/or mutagenic, we conducted direct extension assays in which we radiolabeled the primer and added increasing concentrations (5, 50, and 500 μM) of a single dNTP (Supplementary Figs. 3, 5, 6, and 7). Since modified dNTPs may prefer mispairing, we tested various primers in which the first template base was either rA3, rC1, or rU5 (primer 1, primer 2, and primer 3, respectively), and compared the percent primer extension for each dNTP at the middle 50 μM concentration (Fig. 3). Primers 1 and 2 initiate synthesis at consecutive rA3rA4 or rC1rC2 template bases, respectively, so we could examine both incorporation and extension to the next base. However, the telomerase template lacks tandem rU residues.
Fig. 3 Telomerase insertion of modified dNTPs. Telomerase reactions were conducted with 5 nM ^32P-end labeled primer a Primer 1 (TTAGGG)3, b Primer 2 (GGTTAG)3, or c Primer 3 (AGGGTT)3. Reactions contained cellular-concentration dNTPs (lane 1) or 50 μM of indicated natural dNTP (blue, lanes 2–5), oxidized dNTP (red, lanes 6–8), or therapeutic dNTP (green, lanes 9–11). Products were separated on denaturing gels. […] Letters on the right indicate the template base; P indicates unextended 18-mer primer. Graphs represent the percent of total primers extended. Images are representative of, and data are shown as mean ± s.d. from, three independent experiments. Source data are provided as a Source Data file.
(§1) An equal volume of loading buffer (94% formamide, 0.1× TBE, 0.1% bromophenol blue, 0.1% xylene cyanol) was added to the reaction eluent. The samples were heat denatured for 10 min at 100 °C and loaded onto a 14% denaturing acrylamide gel (7 M urea, 1× TBE) and electrophoresed for 90 min at constant 38 W. Samples were imaged using a Typhoon phosphorimager (GE Healthcare). Percent primer extension was calculated with ImageQuant TL 8.2 by measuring the intensity of each product band and dividing by the total radioactivity in the lane or total products, as indicated in the figure legends.
Telomerase reactions were conducted with 5 nM 32P-end labeled primer (a) Primer 1 (TTAGGG)3, (b) Primer 2 (GGTTAG)3, or (c and d) Primer 3 […]
(d) reactions contained 3 µg/µl RNase A. Products were separated on denaturing gels. Letters on the right indicate the template base; P indicates unextended 18-mer primer. Graphs represent the percent of total primers extended for the reactions in panels a – c from one experiment. Panel d is a representative image from three independent experiments. Source data are provided as a Source Data file. […]
Supplementary Fig 4. Time course reactions with telomerase or pol β. (a, b) Telomerase reactions were conducted with 5 nM 32P-end labeled primer (a) Primer 4 (GTTAGG)3 or (b) Primer 2 (GGTTAG)3.
Products were separated on denaturing gels. Letters on the right indicate the template base; P indicates […]
unextended 18-mer primer. […]

telomerase [2] = assay: Direct telomerase assay in the absence or presence of POT1-TPP1 (processivity R1/2); type: biochemical, human; conditions: for Effect of POT1-TPP1 on telomerase in presence of analog (in words): analog substituted for its natural dNTP
Description: Next we tested whether the telomerase processivity factor POT1–TPP1 modulates modified dNTP inhibition of telomerase. POT1 binds to the telomeric ssDNA overhang, requiring the minimum sequence of 5′-[…]-3′[38]. Inclusion of POT1-binding partner TPP1, increases the binding affinity for telomeric DNA ten-fold compared to POT1 alone. POT1–TPP1 recruits telomerase to telomeres in vivo[39], and greatly increases telomerase repeat processivity. Therefore, we reasoned that POT1–TPP1 may overcome inhibition by the modified dNTPs and enhance telomerase processivity. We conducted telomerase extension reactions with radiolabeled primer in the presence of POT1–TPP1, and used a primer with a single mutation ([…]; underlined G to C mutation)[40] to ensure POT1–TPP1 is positioned at the 5′ portion of the primer (Fig. 5). This provides a homogenous substrate for telomerase extension.
For these reactions, we replaced the natural dNTP with the modified dNTP analog, while the other dNTPs remained at cellular relevant concentrations.
Direct telomerase assays were conducted in the absence or presence of 500 nM POT1 and 500 nM TPP1, as indicated, and 5 nM ^32P-end labeled primer ([…]) designed to position POT1 at the 10 nt primer 5′ end. Reactions contained cellular-concentration dNTPs (lanes 1 and 2), except when the natural dNTP was substituted with the oxidized dNTP a or therapeutic dNTP b analog (lanes 3–8), as indicated. […] Letters on the right indicate template base; P indicates unextended 18-mer primer. c Processivity was calculated on the basis of total products normalized to loading control. Images are representative of, and data are shown as mean ± s.d. from 3 to 5 independent experiments. Source data are provided as a Source Data file.
as §1, with “The reactions were started by the addition of 3 μl of immunopurified telomerase eluent, incubated at 37 °C for 1 h, then terminated with 2 μl of […] and heat inactivated at 65 °C for 20 min. An” for “An”
The processivity was calculated as described[40],[67]. Repeat processivity from the direct telomerase extension assays was calculated as R1/2 (equivalent to the half-time for decay in an exponential time course), which represents the median length of DNA product formed, expressed in terms of number of telomere repeats. First, the total volume counts for each product band extend by one or more telomere repeats were obtained using Image Quant TL. The volume counts were then normalized by dividing by the number of radiolabeled guanosines incorporated into the extended products based on the number of repeats added, termed corrected volume (corr vol). The “percent left behind” (%LB) was calculated for each product band by summing the counts for that product band and for every product band below (shorter products), divided by the total counts for the lane, and then multiplied by 100. The natural log of (100−%LB) was calculated and then plotted vs. repeat number for each product length. A linear regression line was fit to the data to determine the slope of the line.

[3] = Primer 2 (GGTTAG)3, first template base rC1, Mean of three experiments

Sequence of telomerase (Homo sapiens, UniProt O14746) (O14746 whole entry): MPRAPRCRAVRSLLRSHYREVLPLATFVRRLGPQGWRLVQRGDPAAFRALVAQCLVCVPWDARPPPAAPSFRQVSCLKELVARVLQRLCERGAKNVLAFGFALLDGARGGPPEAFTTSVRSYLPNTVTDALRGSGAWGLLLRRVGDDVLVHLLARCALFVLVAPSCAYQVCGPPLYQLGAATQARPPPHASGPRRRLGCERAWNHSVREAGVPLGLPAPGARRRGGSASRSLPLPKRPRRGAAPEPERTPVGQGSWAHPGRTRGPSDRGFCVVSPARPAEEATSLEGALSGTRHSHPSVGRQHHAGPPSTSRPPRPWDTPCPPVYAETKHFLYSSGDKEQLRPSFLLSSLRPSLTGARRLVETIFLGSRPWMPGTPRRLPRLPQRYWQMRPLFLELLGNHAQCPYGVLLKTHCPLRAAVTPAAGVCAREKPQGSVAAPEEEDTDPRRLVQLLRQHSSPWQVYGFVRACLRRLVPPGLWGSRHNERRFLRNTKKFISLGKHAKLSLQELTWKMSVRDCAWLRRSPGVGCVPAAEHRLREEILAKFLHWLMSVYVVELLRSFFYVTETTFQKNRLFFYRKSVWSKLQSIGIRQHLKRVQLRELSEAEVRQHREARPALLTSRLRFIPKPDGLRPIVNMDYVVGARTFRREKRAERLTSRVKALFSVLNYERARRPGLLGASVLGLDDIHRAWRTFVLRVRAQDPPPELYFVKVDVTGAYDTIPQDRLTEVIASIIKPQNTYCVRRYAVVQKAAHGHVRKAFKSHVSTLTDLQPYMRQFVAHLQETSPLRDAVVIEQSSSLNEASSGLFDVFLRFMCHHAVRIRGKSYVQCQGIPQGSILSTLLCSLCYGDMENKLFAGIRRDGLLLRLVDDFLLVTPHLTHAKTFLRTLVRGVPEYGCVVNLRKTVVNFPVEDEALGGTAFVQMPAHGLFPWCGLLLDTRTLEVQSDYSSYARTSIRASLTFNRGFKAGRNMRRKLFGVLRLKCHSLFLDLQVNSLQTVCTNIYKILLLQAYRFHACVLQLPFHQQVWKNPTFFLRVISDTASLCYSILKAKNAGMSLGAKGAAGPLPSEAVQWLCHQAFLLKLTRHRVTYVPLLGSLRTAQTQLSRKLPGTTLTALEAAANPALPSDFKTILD

| Structure (SMILES) | % Primer Extension (telomerase [1]; Primer 1, 5µM dNTP) | % Primer Extension (telomerase [1]; Primer 1, 50µM dNTP) | % Primer Extension (telomerase [1]; Primer 1, 500µM dNTP) | % Primer Extension (telomerase [1]; Primer 2, 5µM dNTP) | % Primer Extension (telomerase [1]; Primer 2, 50µM dNTP) | % Primer Extension (telomerase [1]; Primer 2, 500µM dNTP) | % Primer Extension (telomerase [1]; Primer 3, 5µM dNTP) | % Primer Extension (telomerase [1]; Primer 3, 50µM dNTP) | % Primer Extension (telomerase [1]; Primer 3, 500µM dNTP) | Chain termination after telomerase insertion (in words) (telomerase [1]) | Effect of POT1-TPP1 on telomerase in presence of analog (in words) (telomerase [2]) | Percent Primer Extension (telomerase [1]; [3]) | Percent Primer Extension (telomerase [1]; Primer 2 (GGTTAG)3, first template base rC1, single experiments n1-n3) | Percent Primer Extension (telomerase [1]; Primer 3 (AGGGTT)3, first template base rU5, Mean of three experiments) | Percent Primer Extension (telomerase [1]; Primer 3 (AGGGTT)3, first template base rU5, single experiments n1-n3) | Percent Primer Extension (telomerase [1]; Primer 1 (TTAGGG)3, first template base rA3, Mean of three experiments) | Fold less product than with dATP (telomerase [1]; Primer 3, insertion opposite rU5, 50 μM) | Mutagenic insertion by telomerase (in words) (telomerase [1]; misinsertion opposite rA3 and rC1) | Fold enhancement of repeat processivity by POT1-TPP1 (telomerase [2]; 2-OH-dATP replaced dATP) |
| --- | --- | --- | --- | --- | --- | --- | --- | --- | --- | --- | --- | --- | --- | --- | --- | --- | --- | --- | --- |
| Nc1nc2c(ncn2C2CC(O)C(COP(=O)(O)OP(=O)(O)OP(=O)(O)O)O2)c(=S)[nH]1 (stereo not shown) [6-thio-dGTP] | 0% | 3.68% | 4.47% | 6.19% | 6.25% | 8.35% | 6.75% | 6.04% | 7.79% | not a telomerase chain terminator | failed to stimulate telomerase | – | – | – | – | – | – | – | – |
| Cc1cn([C@H]2C[C@H](N=[N+]=[N-])[C@@H](CO[P@](=O)(O)O[P@](=O)(O)OP(=O)(O)O)O2)c(=O)[nH]c1=O [AZT-TP] | – | – | – | – | – | – | – | – | – | genuine telomerase chain terminators | failed to stimulate telomerase processivity | 0.00% | 0.00% | 0.00% | 0.00% | – | – | – | – |
| Nc1nc(O)nc2c1ncn2C1CC(O)C(COP(=O)(O)OP(=O)(O)OP(=O)(O)O)O1 (stereo not shown) [2-OH-dATP] | 0.00% | 1.98% | 6.01% | 0.00% | 1.93% | 3.14% | 8.27% | 15.94% | 46.35% | – | – | 1.32% | – | – | – | 2.82% | 2 fold | not mutagenic | 5 fold |
